Measurements as given in publication PMC11224403, “Des-acyl ghrelin reduces alcohol intake and alcohol-induced reward in rodents” (Translational Psychiatry, 2024).

Assays:
[1] = test system: feeding and ghrelin-induced responses; conditions: cited from earlier work
Text: DAG can be found in the plasma after ghrelin is secreted from the gastrointestinal tract and subsequently deacetylated in the serum. […] Based on these findings and given that ghrelin has a prominent role in mediating alcohol-related responses, we hypothesize that DAG decreases such effects in rodents.

CB1 receptor = assay: Aquoscreen receptor activity assay, CB1; type: cell-based, human; conditions: 50 µM DAG in results (8.3 µM in methods); luminescence, triplicates
[2] = test system: human transporter of dopamine (DAT); assay: Transporter inhibition in recombinant cell line (neurotransmitter transporter uptake assay), DAT; type: cell-based; conditions: 8.3 µM DAG; CHO-K1 cells, 3 h incubation, fluorescence dye
male mice = assay: Locomotor activity test, alcohol-induced stimulation and DAG per se, mice; type: in vivo, NMRI mice
Text: Male and female Rcc Han Wistar rats (8–12 weeks old at arrival; Envigo, Horst, Netherlands) were used for the alcohol drinking and locomotor activity experiments as they drink alcohol to intoxicating levels. For in vivo microdialysis studies male Wistar rats (Charles River, Calco, Italy) were used as they display robust dopamine levels in NAc shell after alcohol injection. […] All rodents were allowed to habituate to the animal facility at least one week before they entered an experiment. […] The sample sizes of each experiment were based on previous experience in which statistical significance has been detected. The person who conducted the experiments, and analyzed the collected data was aware of the treatment allocation. Only preset exclusion criteria were used when analyzing the data obtained in attempts to exclude confounding factors in analyzing data. In the alcohol drinking experiments leaking bottles and low alcohol consumption (<3.0 g/kg for males; <3.5 g/kg for females) were preset exclusion criteria. The preset exclusion criterion in the ex vivo HPLC-EC, ELISA, and recombinant cell line experiments was contamination of the sample. Misplaced probes, technical difficulties, and damages to the surgery area were preset exclusion criteria for the in vivo microdialysis experiment. Intra-cage male aggression was the preset exclusion criterion for the locomotor activity and CPP experiments. To minimize tentative confounding factors, the order of treatments was stratified, with treatments being mixed for each animal cage and for each apparatus used as well as balancing the alcohol intake between future treatment groups.
Alcohol was in the behavioral and neurochemical tests injected (intraperitoneally, IP) 5 min before the test.
Locomotor activity tests were conducted in ventilated and dim-lit (4 lux) open field arenas (420 × 420 × 200 mm; Med Associates Inc; Georgia, Vermont, USA). Infra-red beams detected distance traveled, number of jumps, vertical counts, average velocity, stereotypic counts, number of inner zone entries, and time spent in the inner/outer zones of each animal.
In the first test, after 60 min of habituation, male (n = 24) or female (n = 24) rats were injected with vehicle or DAG (0.5, 1.0, or 2.0 mg/kg). 15 min later the activity was monitored for another 60 min. In the second locomotor activity experiment, male mice (n = 32) were allowed to habituate for 60 min. After that, they were injected with vehicle or DAG (0.25, 0.5, or 1.0 mg/kg). After 15 min the activity was monitored for another 60 min.
Therefore, male mice were (n = 32) injected with DAG (1.0 mg/kg) or vehicle 15 min before alcohol or vehicle. The activity registration started 5 min later and was recorded for an additional 60 min. Identical locomotor activity experiments were conducted in new male mice (n = 32), where a lower dose of DAG (0.5 mg/kg) was combined with alcohol.
The data from drinking experiments were analyzed by unpaired t-test or repeated two-way ANOVA. A two-tailed unpaired t-test analyzed the ELISA, ex vivo HPLC-EC, and cFOS data. In addition, the Pearson test correlated the serum levels and the mean values of alcohol intake in rats. A one-way ANOVA with Bonferroni post hoc tests and unpaired t-test analyzed the locomotor activity and CPP data, respectively. The in vivo microdialysis experiments were evaluated by a repeated two-way ANOVA followed by the Bonferroni post hoc test.

5HT2A receptor = assay: Aquoscreen receptor activity assay, 5HT2A; type: cell-based, human; conditions: 50 µM DAG in results (8.3 µM in methods); luminescence, triplicates

des-acyl ghrelin (GSSFLSPEHQRVQQRKESKKPPAKLQPR; Ghrelin-28 non-acylated; UniProt Q9UBU3 24-51, looked up) [DAG, non-octanoylated form of ghrelin; purchased from Tocris (printed Tocrise Bioscience), dissolved in 0.9% NaCl]
effects of ghrelin on feeding, gastric emptying, body temperature, glucose and lipid metabolism ([1]; ref [30–34]): blocks the effects of ghrelin on feeding, gastric emptying, body temperature, and glucose and lipid metabolism
food intake ([1]; ref [32]): decrease food intake
activation of CB1 (CB1 receptor): no activation
inhibition of DAT [2]: no inhibition
alcohol-induced locomotor stimulation (effect of DAG) (male mice; DAG 0.5 mg/kg plus alcohol, n = 8 per group (vehicle-vehicle one removed)): reduced but did not block (P = 0.5319)
alcohol-induced locomotor stimulation (effect of DAG) (male mice; DAG 1 mg/kg 15 min before alcohol 1.75 g/kg IP, n = 8 per group): prevented the alcohol-induced locomotor stimulation (P = 0.0305)
locomotor activity, DAG per se (male mice; DAG 1 mg/kg without alcohol, n = 8 per group): did not alter the activity of the mice (P > 0.9999)
locomotor activity, DAG per se, dose finding (male mice; DAG 0.25, 0.5 or 1.0 mg/kg, 60 min recording, n = 8 per group, data not shown): did not influence locomotor activity
activation of 5HT2A (5HT2A receptor): no activation
